These are literature values, as cited in US10045962B2 (priority 2014, dated 2018).

In data set [1] the test system is adrenergic receptors. The settings on record: in vitro tests; cited from earlier work.
Data set [2] deals with reuptake of serotonin. To be noted: pre-clinical tests; cited from earlier work.
For data set [3], the system named is histaminergic receptors. The settings on record: in vitro tests; cited from earlier work.
The test system of data set [4] is reuptake of norepinephrine. To be noted: pre-clinical tests; cited from earlier work.
Data set [5] deals with reuptake of dopamine. The settings on record: pre-clinical tests; cited from earlier work.
For data set [6], the system named is cholinergic receptors. The settings on record: in vitro tests; cited from earlier work.
The subject of data set [7] is monoamine oxidase. The settings on record: cited from earlier work.
Data set [8] has as its system dopaminergic receptors. The settings on record: in vitro tests; cited from earlier work.

Turning to `CNCC[C@H](Oc1cccc2ccccc12)c1cccs1` [duloxetine], the “affinity to adrenergic receptors” value in data set [1] is recorded as “no significant affinity”. The “block of reuptake of serotonin” value in data set [2] is “effectively block”. Also, the “affinity to histaminergic receptors” value in data set [3] is given as “no significant affinity”. The “block of reuptake of norepinephrine” value in data set [4] is “effectively block”. For the same compound, the “block of reuptake of dopamine” value in data set [5] was “merely slightly block”. The “affinity to cholinergic receptors” value in data set [6] is “no significant affinity”. For the same compound, the “inhibition of monoamine oxidase” value in data set [7] was “does not inhibit”. In addition, the “affinity to dopaminergic receptors” value in data set [8] is recorded as “no significant affinity”.
